Experimental data published in PubChem BioAssay (NCI).
Values joined by “and” are separate entries in the source; they are usually repeats but may differ in a detail not shown here. Equal values may be shown once.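 All cell lines were grown in 96-well plates and treated with compound for 48 hours. The concentration for 50% growth inhibition is given as GI50. TGI: concentration producing complete growth inhibition.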

system: 786-0 renal; assay: NCI-60 cell line screen, 48 h

SMILES | GI50 [µM] | TGI [µM]
COC(=O)c1ccc2c(c1)nc(NC(=O)c1ccccc1)n2CCCc1ccccc1 | 4.77 | > 100
O=C(O)COc1ccc2c(=O)c3sc4c(=O)c5ccccc5c(=O)c4c3c(=O)c2c1 | 21.8 | 76.1
O=C(Nc1ccc2ncccc2c1)Nc1ccc2ncccc2c1 | – | > 100
CC1(C)S[C@@H]2[C@H](NC(=O)C3(N)CCCCC3)C(=O)N2[C@H]1C(=O)O | – | > 100
NC(=O)/C=C/C(=O)c1c(Cl)cccc1Cl | 2.14 | –
CC1(C)N=C(N)N=C(N)N1c1ccc(CCCCc2ccc(Cl)cc2S(=O)(=O)F)c(Cl)c1 | 0.428 | 8.08
O=C(Nc1ccc(Nc2ccncc2)cc1)c1ccc([N+](=O)[O-])cc1 | 3.47 | 14.6
C(=NCCN1CCOCC1)=NC1CCCCC1 | – | > 100
COc1ccccc1/C=N\N/C(N)=N\N=C\c1ccccc1OC | 0.609 | 5.01
Oc1ccc(Nc2ncnc3c2sc2ncccc23)cc1 | < 0.01 | –
COc1cccc(CC(C)=C(c2ccc(OCCN(C)C)cc2)c2ccc(OCCN(C)C)cc2)c1 | 0.606 | 1.27
COC(=O)COc1ccccc1/C=C1\N=C(c2ccccc2)N(c2cc(C(F)(F)F)ccc2Cl)C1=O | 91.2 | > 100
C=C1C(=O)OC2CC(C)C(C(CC(C)=O)OC(C)=O)=CCC12 (centres undefined) | – | 9.65
CC(=O)OC1COC(Oc2c(C)c3c4c(c2O)[C@@H](C)CC[C@@H]4[C@@H](C)C[C@H]3C=C(C)C)C(O)C1OC(C)=O (some centres undefined) | 16.4 | 31.8
S=C(Nc1ccc(Cl)cc1)Nc1ccc(-c2nc3ccccc3s2)cc1 | 16.3 | 30.2
COC(=O)C[C@](O)(CCCC(C)(C)O)C(=O)O[C@@H]1C(OC)=C[C@]23CCCN2CCc2cc4c(cc2[C@H]13)OCO4 | 0.033 | –

system: DU-145 prostate; assay: NCI-60 cell line screen, 48 h

SMILES | GI50 [µM] | TGI
COc1ccc(OC)c2c1[nH]c(=O)c1c3ccccc3cn21 | 1.51 | 3.03 µM
COc1cccc2c1C(=O)c1c(O)c3c(c(O)c1C2=O)C[C@@](O)(C(=O)CO)C[C@@H]3OC1CC(N)CC(C)O1 (some centres undefined) | – | 0.175 µM and 1.22 µM
CN(C)CCNC(=O)c1cccc2ccc(-c3ccc(O)cc3)nc12 | – | 10.6 µM
COc1cc(Nc2ncccc2C(=O)NCc2cn(Cc3cccc(Oc4ccccc4)c3)nn2)cc(OC)c1 | 10.5 | > 100 µM
COc1cccc(C2CC(C)(O)Oc3cc4c(cc32)OCO4)c1O (centres undefined) | – | 73.2 µM
Cn1cc(C2=C(c3ccc(N)cc3)C(=O)NC2=O)c2ccccc21 | > 25 | > 25 µM
Cc1cc(Cl)cc(OCCn2cc(F)cn2)c1-c1nc(N)nc2c1CN(C(=O)NCC(C)(F)F)C2 | 0.0652 | > 100 µM
COc1ccc(/C=C\[N+](=O)[O-])cc1OC | 3.1 | 11.9 µM
CCN(CC)CCC(CNc1ccnc2cc(Cl)ccc12)c1ccc(Cl)cc1 (centres undefined) | 5.44 | 17.7 µM
COc1cccc(F)c1C(=O)c1cnc(NC2CCN(S(C)(=O)=O)CC2)nc1N | 6.54 | > 22.8 µM
COc1cc(OCc2cccc(-c3ccc(C(O)c4nccs4)cc3)c2C)cc(OC)c1C=O (centres undefined) | 2.81 | 10.5 µM
COC(=O)c1ccc2c(c1)nc(NC(=O)c1ccccc1)n2CCCc1ccccc1 | 11.5 | > 100 µM
O=C(O)COc1ccc2c(=O)c3sc4c(=O)c5ccccc5c(=O)c4c3c(=O)c2c1 | 2.15 | 5.34 µM
O=C(Nc1ccc2ncccc2c1)Nc1ccc2ncccc2c1 | – | > 100 µM
CC1(C)S[C@@H]2[C@H](NC(=O)C3(N)CCCCC3)C(=O)N2[C@H]1C(=O)O | – | > 100 µM
NC(=O)/C=C/C(=O)c1c(Cl)cccc1Cl | 1.65 | 3.04 µM
CC1(C)N=C(N)N=C(N)N1c1ccc(CCCCc2ccc(Cl)cc2S(=O)(=O)F)c(Cl)c1 | 0.558 | 15.8 µM
O=C(Nc1ccc(Nc2ccncc2)cc1)c1ccc([N+](=O)[O-])cc1 | 8.87 | 42 µM
C(=NCCN1CCOCC1)=NC1CCCCC1 | – | > 100 µM
COc1ccccc1/C=N\N/C(N)=N\N=C\c1ccccc1OC | 0.386 | 2.73 µM
